Results as given in US20210361767A1, “RESCUING CANCER PATIENTS FROM RESISTANCE TO TREATMENT WITH INHIBITORS OF PD-1/PD-L1 INTERACTIONS” (Mayo Foundation for Medical Education and Research, priority 2018, published 2021).

Experiments:
[1] = tested on: A786-0 (renal cell carcinoma) cells; test: sPD-L1 ELISA of supernatants of A786-0 cells treated with protease inhibitors; assay type: cell-based; conditions: A786-0 at 10 MM/ml; control DMSO 886 pg/ml; p=0.00018; n=5; FIG. 4E
Protocol: Tumor cells were treated with PBS (placebo) or with various protease inhibitors, including MMP inhibitors TAPI-2 and TAPI-0, aspartic protease inhibitor Pepstatin, cysteine protease inhibitor E-64, serine protease inhibitor Aprotinin, combinations of these inhibitors, and an array of other MMP inhibitors. Cell supernatants were queried for sPD-L1 by ELISA. FIG. 4A, Karpas-299 (lymphoma) cells were treated with the indicated protease inhibitors. FIG. 4B, A786-0 (renal cell carcinoma) cells were treated with the indicated protease inhibitors. FIG. 4C, Dul45 cells were treated with the indicated protease inhibitors. FIG. 4D, Mel-B7H1 (transgenic melanoma) cells were treated with the indicated protease or metalloprotease inhibitors. FIG. 4E is a graph plotting sPD-L1 production induced by interferon treatment or high cell titer in A786-0 cells. Cells grown at 1 MM/ml in control DMSO produced little sPD-L1. […] FIG. 4F is a graph plotting the amount of sPD-L1 in supernatants of Karpas-299 cells treated with control or with varying concentrations of the ADAM10/17 inhibitor aderbasib.
Several tumor cell lines were treated with PBS (placebo) or with various protease inhibitors, including matrix metalloprotease inhibitors TAPI-2 and TAPI-0, aspartic protease inhibitor Pepstatin, cysteine protease inhibitor E-64, serine protease inhibitor Aprotinin, combinations of these inhibitors, and an array of other matrix metalloprotease inhibitors. Cell supernatants were queried for sPD-L1 by ELISA as published elsewhere (Frigola et la., supra). In brief, paired mouse IgG2 monoclonal antibodies against extracellular rhB7-H1 were utilized in a capture-detection plate assay using biotinylation and HRP-streptavidin detection. […] Concentrations were determined by optical density measurements along a known standard curve of rhB7-H1. […] Two-sided, unpaired Student t tests assessed statistical differences in experimental groups except where otherwise indicated. […]

Karpas-299 cells = test: sPD-L1 ELISA of supernatants of Karpas-299 cells treated with protease inhibitors; assay type: cell-based; conditions: for sPD-L1 production with increasing concentrations: Karpas-299, 1 MM-10 MM cells/ml, 24 hours, aderbasib 320 pM to 32 mM, FIG. 4F
Protocol: (§1) Several tumor cell lines were treated with PBS (placebo) or with various protease inhibitors, including matrix metalloprotease inhibitors TAPI-2 and TAPI-0, aspartic protease inhibitor Pepstatin, cysteine protease inhibitor E-64, serine protease inhibitor Aprotinin, combinations of these inhibitors, and an array of other matrix metalloprotease inhibitors. Cell supernatants were queried for sPD-L1 by ELISA as published elsewhere (Frigola et la., supra). In brief, paired mouse IgG2 monoclonal antibodies against extracellular rhB7-H1 were utilized in a capture-detection plate assay using biotinylation and HRP-streptavidin detection. […] Concentrations were determined by optical density measurements along a known standard curve of rhB7-H1. Karpas-299 cells were incubated at 10 MM cells per ml in cell culture media (RPMI plus FBS plus Penicillin/Streptomycin plus buffering reagents) over 24 hours in the presence of 1 μl/100 μl DMSO or PBS (placebo), TAPI-2 at 278 μM, Pepstatin at 206.5 μM, E-64 at 185 μM, or Aprotinin at 220 μM, or a combination of the above materials at various concentrations. […] All statistical analyses were performed using R! software. Two-sided, unpaired Student t tests assessed statistical differences in experimental groups except where otherwise indicated. P values indicate comparison to vehicle control groups. P<0.05 was considered statistically significant.
Subsequent studies were conducted in which Karpas-299 cells were incubated with different matrix metalloprotease inhibitors with varying specificities. For example, Karpas-299 cells were incubated at 10 MM cells per ml in cell culture media over 24 hours in the presence of 1 μl/100 μl DMSO (control), 50 μM TAPI-2, 50 μM TAPI-0, 50 μM GI254023X, 5 μM Ro 32-3555, 5 μM ARP 101, 50 μM UK 370106, 500 pM MMP-9 inhibitor I, 5 μM Doxycycline, or some combination thereof.
Aderbasib is a selective inhibitor of matrix metalloproteases ADAM10 and ADAM17. Karpas-299 cells were incubated at 1 MM-10 MM cells/ml and treated for 24 hours with concentrations of aderbasib ranging from 320 pM to […].
(§2) Karpas-299 lymphoma cells producing sB7-H1 were cultured with an array of protease inhibitors. Supernatants from these cultures were isolated and analyzed for sB7H1 concentration by ELISA. Subsequently, activated human CD8+ T cells were cultured with recombinant sB7H1 protein and cell survival was measured at 24 hours. CD8+ T cells also were cultured with sB7H1-rich tumor cell line supernatants versus sB7H1-depleted supernatants over 48 hours in the presence of placebo, low dose (10 nM), or high dose (1 μM) anti-PD-1 antibody pembrolizumab, and cell survival was measured.

[2] = tested on: Dul45 prostate cancer cells; test: sPD-L1 ELISA of supernatants of Dul45 prostate cancer cells; assay type: cell-based; conditions: FIG. 4C
Protocol: as §1
Further studies were conducted using different types of cells.

CD8+ T cells [3] = test: CD8+ T cell survival with Karpas-299 supernatants, TMRE/Annexin-V flow cytometry; assay type: cell-based, human; conditions: with Karpas-299 supernatant, antibody at 1 μM; 1 μM pembrolizumab among the most effective; FIG. 5C
Protocol: CD8+ T cells isolated from healthy subjects were incubated in the presence of 50% Karpas-299 supernatants of varying types and 50% fresh cell culture media. Supernatant types included sPD-L1-rich supernatants from Karpas-299 cells, supernatants from Karpas-299 cells treated with TAPI-0 to prevent sPL-L1 production, supernatants from Karpas-299 cells “spiked” with TAPI-0 after sPD-L1 production, and fresh culture media controls (FIG. 5C). Karpas-299 cell supernatants were generated by incubation at 10 MM cells/ml for 48 hours. TMRE/Annexin-V binding was measured by flow cytometry to assess the level of CD8+ T cell survival. Antibodies and reagents used for flow cytometry were Annexin-V-FITC, anti-mouse CD16/32 (BioLegend; San Diego, Calif.); anti-PD-L1, mouse isotype control (eBioScience/Thermo Fisher Scientific; Waltham, Mass.), TMRE-PE (Abcam; Cambridge, Mass.), BD Wash/Perm (Becton Dickenson; Waltham, Mass.). Flow cytometry was performed and analyzed using FlowJo (Treestar; Ashland, Oreg.).
CD8+ T cells were incubated with supernatants from Karpas-299 cells as above, plus varying doses of several anti-PD-1 antibodies.
as §2

CD8+ T cells [4] = test: CD8+ T cell survival with sPD-L1-rich Karpas-299 supernatant, with or without checkpoint inhibitors (trypan blue); assay type: cell-based, human; conditions: with sPD-L1-rich Karpas-299 supernatant, therapeutic doses of checkpoint inhibitor, n=3, FIG. 5B
Protocol: FIG. 5A is a graph plotting survival of CD8+ human T cells cocultured in the presence of PBS control or 5 μg/ml or 10 μg/ml recombinant sPD-L1. […] FIG. 5B is a graph plotting survival of CD8+ human T cells cultured in the presence of PBS control or sPD-L1-rich Karpas-299 cell line supernatant, in the presence or absence of PD1 or PD-L1 checkpoint inhibitors. Cell survival was measured by trypan blue staining. […] FIGS. 5C and 5D are a series of flow cytometry plots indicating survival of CD8+ T cells treated with various cell extracts and an anti-PD-1 antibody (nivolumab or pembrolizumab) or an anti-PD-L1 antibody (atezolizumab). FIG. 5C, CD8+ T cells isolated from healthy subjects were incubated with sPD-L1-rich supernatants from Karpas-299 cells, supernatants from Karpas-299 cells treated with inhibitor TAPI-0, supernatants from Karpas-299 cells “spiked” with TAPI-0 after isolation, and controls (top), and TMRE uptake/Annexin-V binding was measured by flow cytometry to assess the level of CD8+ T cell survival. CD8+ T cells also were incubated with supernatants from Karpas-299 cells, plus the indicated doses of anti-PD-1 and anti-PD-L1 antibodies (bottom). FIG. 5D, CD8+ T cells were incubated with PD-L1-rich supernatants from A787-0 RCC cells and the indicated concentrations of pembrolizumab. […]

[5] = tested on: Mel-B7H1 (transgenic melanoma) cells; test: sPD-L1 ELISA of supernatants of Mel-B7H1 cells; assay type: cell-based; conditions: FIG. 4D
Protocol: as §1, with “significant. […]” for “significant.”

COC(=O)N1CC2(CC2)C[C@H](C(=O)NO)[C@H]1C(=O)N1CCN(c2ccccc2)CC1 [aderbasib]
mean sPD-L1 production [1]: 276 pg/mL | sPD-L1 production with increasing concentrations (Karpas-299 cells): decreasing concentrations of sPD-L1 | sPD-L1 production with increasing concentrations (Karpas-299 cells; listed as Aderbasib): reduces sPD-L1 production | sPD-L1 secretion versus controls [2]: significantly reduced

nivolumab: anti-PD-1 antibody, trade name OPDIVO
survival of CD8+ T cells (CD8+ T cells [3]): increased the survival | rescue of CD8+ T cell survival (CD8+ T cells [4]): did not rescue

CNC(=O)[C@@H](NC(=O)[C@H](CCCc1ccccc1)[C@H](C)N(O)C=O)C(C)(C)C [GI254023X]
sPD-L1 expression [5]: most significantly reduced | Karpas-299 production of sB7H1 (Karpas-299 cells; Example 3, supernatants by ELISA, p<0.0001): inhibited

CCN(CC)Cc1cc(C)c(N(Cc2ccccc2)S(=O)(=O)c2ccc(OC)cc2)c(C(=O)NO)c1 [MMPI9]
sPD-L1 secretion versus controls [2]: significantly reduced
